Read-outs that look alike come from different tables or passages of the source.
Columns and labels:
[1] = test system: immunomodulatory cytokines gene expression in PAMs; experiment: RT-qPCR of immunoregulatory factor gene expression in PAMs; type: cell-based, porcine
Marc-145 cells = experiment: CCK-8 cytotoxicity assay in Marc-145 cells; type: cell-based
Experimental: (§1) The cytotoxicity of MV was assessed using the Cell Counting Kit-8 (CCK-8) assay to determine cell viability. Porcine alveolar macrophages (PAMs) and Marc-145 cells were seeded in 96-well plates and treated with varying concentrations of MV (0, 100, 200, 400 or 800 μM) for 24, 48, 72, and 96 h. Following the manufacturer's protocol, CCK-8 reagent was added to each well, and cells were incubated for 2 h at 37°C under 5% CO2. Absorbance was measured at 450 nm using a microplate reader. Cell viability (%) was calculated using the formula:Cell viability (%) = [OD (sample) – OD (blank)/OD (control) – OD (blank)] × 100%, where OD (blank) represents the background absorbance of cell-free medium, and OD (control) denotes untreated cells.
(§2) The half-maximal inhibitory concentration (IC50) value for MV-mediated cytotoxicity was calculated through nonlinear regression fitting of dose-response curves.

[2] = test system: Porcine alveolar macrophages (PAMs); experiment: CCK-8 cytotoxicity assay in PAM cells; type: cell-based
Experimental: as §1, §2

NADC30 strain = experiment: Antiviral assay (TCID50, RT-qPCR, IFA) against NADC30 strain in Marc-145 and PAM cells; type: cell-based, porcine reproductive and respiratory syndrome virus; details: for viral titers: co-treatment; for PRRSV N protein expression (IFA): PAMs, pre-treatment
Experimental: (§3) To investigate the stage-specific antiviral effects of mogroside V (MV) and evaluate its ability to inhibit PRRSV replication in Marc-145 and PAM cells, three distinct treatment groups were established for in vitro evaluation: pre-treatment group, post-treatment group, and co-treatment group. Viral replication was assessed through multiple approaches: quantification of viral mRNA copies by RT-qPCR, determination of viral titers using the TCID50 method, and analysis of PRRSV N protein expression via immunofluorescence assay (IFA). The experimental design was as follows:
(§4) Pre-treatment group: to investigate the preventive effect of MV prior to PRRSV infection, Marc-145 or PAM cells were pretreated with MV before viral challenge. Cells in good growth condition were seeded in 6-well plates and cultured until monolayer formation. After removing the old medium, cells were washed twice with PBS, followed by incubation with varying concentrations of MV for 24 h. The drug was then removed, and cells were washed twice with PBS before infection with PRRSV (100 TCID50) for 48 h. Subsequently, viral mRNA copies, viral titers, and PRRSV N protein fluorescence expression were measured to calculate viral inhibition rates.
(§5) Post-treatment group: In order to investigate the effect of MV on PRRSV infection, MV was added after Marc-145 or PAM cells were infected with PRRSV. The cells with good growth status were inoculated in the 6-well cell culture plate. After the cells grew to monolayer, the old medium was discarded and the cells were cleaned twice with PBS. PRRSV (100 TCID50) was inoculated and incubated for 1 h, during which the virus could be shaken repeatedly to fully interact with cells. The virus venom was removed, washed twice with PBS, and incubated with different concentrations of MV for 48 h. After that, the viral mRNA copies and viral titer were detected, the viral inhibition rate was calculated, and the fluorescence expression of PRRSV N protein was observed.
(§6) Co-treatment group: In order to study the direct effect of MV on PRRSV, PRRSV and MV were simultaneously inoculated in Marc-145 or PAM cells for treatment. The cells with good growth status were inoculated in the 6-well cell culture plate. After the cells grew to monolayer, the old medium was discarded and the cells were cleaned twice with PBS. MV at different concentrations was mixed with PRRSV (100 TCID50) and inoculated into Marc-145 and PAM cells for 48 h. After that, the viral mRNA copies and viral titer were detected, viral inhibition rate was calculated, and the fluorescence expression of PRRSV N protein was observed.
(§7) Real-time quantitative PCR (RT-qPCR) was performed to determine PRRSV gene expression levels. Viral RNA was extracted from cell culture supernatants using a commercial viral DNA/RNA extraction kit according to the manufacturer's protocol, with subsequent storage at −80°C until further analysis. RT-qPCR amplification were conducted using TransScript Green One-Step qRT-PCR SuperMix kit.
(§8) The supernatant from 6-well culture plates was collected into 1.5 mL microcentrifuge tubes and stored at −80°C for subsequent analysis. Cells were washed twice with PBS and fixed with ice-cold methanol for 15 min at room temperature. Non-specific binding sites were blocked with 1% BSA containing 0.05% Tween 20 for 30 min at ambient temperature. Cells were then incubated with anti-PRRSV N protein monoclonal antibody either for 2 h at 37°C or overnight at 4°C. Following primary antibody incubation, cells were treated with fluorophore-conjugated secondary antibody (goat anti-mouse IgG, Alexa Fluor 488) for 1 h at 37°C. Nuclei were counterstained with DAPI for 10 min at room temperature protected from light. Fluorescence microscopy was performed to examine the subcellular distribution and expression levels of PRRSV N protein. Stained cell monolayers were visualized under 4 × , 10 × , and 20 × objective lenses using an epifluorescence microscope. […]

PRRSV = experiment: Antiviral assay against PRRSV, both strains (HP-PRRSV-GFP and NADC30) taken together; type: cell-based, porcine reproductive and respiratory syndrome virus
Experimental: as §3, §4, §5, §6, §7, §8

HP-PRRSV-GFP = experiment: Antiviral assay (TCID50, RT-qPCR, IFA) against HP-PRRSV-GFP strain in Marc-145 and PAM cells; type: cell-based, porcine reproductive and respiratory syndrome virus
Experimental: as §3, §4, §5, §6, §7, §8

[3] = Marc-145 and PAM cells, 400 μM MV
[4] = Marc-145 and PAM cells, MV ≤ 200 μM
[5] = pre-treatment, 400 μM MV, both cell types, vs untreated controls, P < 0.01

C[C@H](CC[C@@H](O[C@@H]1O[C@H](CO[C@@H]2O[C@H](CO)[C@@H](O)[C@H](O)[C@H]2O)[C@@H](O)[C@H](O)[C@H]1O[C@@H]1O[C@H](CO)[C@@H](O)[C@H](O)[C@H]1O)C(C)(C)O)[C@H]1CC[C@@]2(C)[C@@H]3CC=C4[C@@H](CC[C@H](O[C@@H]5O[C@H](CO[C@@H]6O[C@H](CO)[C@@H](O)[C@H](O)[C@H]6O)[C@@H](O)[C@H](O)[C@H]5O)C4(C)C)[C@]3(C)[C@H](O)C[C@]12C [MV, Mogroside V]
pro-inflammatory cytokine storm, such as excessive TNF-α secretion [1]: no evidence of a pro-inflammatory cytokine storm | IL-1 gene expression ([1]; RT-qPCR): significantly upregulates | IL-1β gene expression ([1]; RT-qPCR): significantly upregulates | IL-2 gene expression ([1]; RT-qPCR): significantly upregulates | IL-8 gene expression ([1]; RT-qPCR): significantly upregulates | IL-18 gene expression ([1]; RT-qPCR): significantly upregulates | cell viability (Marc-145 cells; Marc-145 cells, 400 μM MV): exceeded 75% | IC50 (Marc-145 cells; Marc-145 cells, 24 h): 686 µM | IC50 (Marc-145 cells; Marc-145 cells, 48 h): 756 µM | IC50 (Marc-145 cells; Marc-145 cells, 72 h): 756 µM | IC50 (Marc-145 cells; Marc-145 cells, 96 h): 760 µM | maximum safe drug concentration (Marc-145 cells; PAM and Marc-145 cells): 400 µM | cell viability ([2]; PAM cells, 400 μM MV): exceeded 75% | IC50 ([2]; PAM cells, 24 h, read-out: IC50 (cytotoxicity)): 577 µM | IC50 ([2]; PAM cells, 48 h, read-out: IC50 (cytotoxicity)): 599 µM | IC50 ([2]; PAM cells, 72 h, read-out: IC50 (cytotoxicity)): 704 µM | IC50 ([2]; PAM cells, 96 h, read-out: IC50 (cytotoxicity)): 582 µM | IC50 ([2]; all IC50 values, Marc-145 and PAM cells, 24-96 h, read-out: IC50 values, all): ≥ 577 µM | enhancement in mRNA inhibition, 400 μM vs 200 μM (NADC30 strain; Marc-145 and PAM cells): 49 percentage-point | improvement in viral titer inhibition, 400 μM vs 200 μM (NADC30 strain; Marc-145 and PAM cells): 43 percentage-point | average mRNA inhibition rate (NADC30 strain; [3]): > 94% | average viral titer inhibition rate (NADC30 strain; [3]): > 98% | average mRNA inhibition rate (NADC30 strain; [4]): below 45% | average viral titer inhibition rate (NADC30 strain; [4]): below 55% | viral titers (NADC30 strain; Marc-145 cells, 400 μM MV): below the detection threshold | viral titers (NADC30 strain; PAM cells, 400 μM MV (CPE in only two replicate wells)): approached the lower detection limit | PRRSV N protein expression (IFA) (NADC30 strain; 400 μM MV, P < 0.01): significantly reduced | PRRSV N protein expression (IFA) (NADC30 strain; 100 and 200 μM MV): no statistically significant effects | inhibition rate for viral titers (PRRSV; 200 μM MV, Marc-145 and PAM cells, mean values across all treatment groups): 43% | maximal inhibition of viral titers (PRRSV; 400 μM MV): up to 100% | greater suppression of viral mRNA, high- vs low-concentration group (PRRSV; 400 μM vs 200 μM MV): 51% | viral fluorescence intensity (IFA) (PRRSV; Marc-145 cells, pre-treatment, 400 μM MV, P < 0.01): markedly diminished | PRRSV N protein expression (IFA) (PRRSV; Marc-145 or PAM cells, 400 μM MV, post-infection and co-treatment regimens): no detectable PRRSV N protein expression | viral replication in cells (PRRSV; co-treatment, 400 μM MV, P < 0.01): markedly suppressed | viral titers (PRRSV; post-treatment (1 h post-infection), 400 μM MV, Marc-145 and PAM cells): undetectable levels | viral mRNA copies (PRRSV; post-treatment (1 h post-infection), 400 μM MV, Marc-145 and PAM cells, P < 0.01): significantly reduced | PRRSV mRNA levels (PRRSV; [5]): significantly reduced | viral titers (PRRSV; [5]): significantly reduced | increase in mRNA inhibition, 400 μM vs 200 μM (HP-PRRSV-GFP; Marc-145 and PAM cells): 53 percentage-point | increase in viral titer inhibition, 400 μM vs 200 μM (HP-PRRSV-GFP; Marc-145 and PAM cells): 52 percentage-point | average mRNA inhibition rate (HP-PRRSV-GFP; [3]): exceeding 95% | average viral titer inhibition rate (HP-PRRSV-GFP; [3]): exceeding 95% | average mRNA inhibition rate (HP-PRRSV-GFP; [4]): below 42% | average viral titer inhibition rate (HP-PRRSV-GFP; [4]): below 43% | viral titers (HP-PRRSV-GFP; Marc-145 cells, co-treatment, 400 μM MV): below the detection threshold | viral titers (HP-PRRSV-GFP; PAM cells, co-treatment, 400 μM MV): below the detection threshold | viral mRNA copies (HP-PRRSV-GFP; PAMs, pre-treatment, 200 μM MV, P < 0.05): significantly suppressed | viral titers (HP-PRRSV-GFP; PAMs, pre-treatment, 200 μM MV, P > 0.05): no significant reduction
